From patent publication US20050008684A1, “Method of treatment for acne, rosacea and ulcers with taurolidine and/or taurultam in a pharmaceutical composition” (priority 2003, published 2005)

Columns and labels:
[1] = test system: impetiginous atopical eczema on the hands and feet; experiment: case treatment of atopic eczema, topical; type: in vivo, human; conditions: same patient, before taurolidine treatment
Experimental: The patient was released with a prescription to apply Triclosan in a Dermatop-base cream upon need. The pustules were treated with methylrosaniline chloride solution. […] Further treatments included application of Dermatop-cream, Polyvidon-Iodine solution, crystal violet solution, and Nystatin-suspension. […] Treatment was then continued for another week at reduced frequency application such as once daily.

[2] = test system: Staphylococcus aureus; conditions: cited from earlier work
[3] = test system: acne, inflamed lesions in the skin; experiment: topical treatment of acne; type: in vivo, human
[4] = test system: skin sensitization; experiment: Magnusson & Kligman-Test; type: in vivo

Row | Compound | condition under earlier therapy of atopical eczema [1] | minimal threshold of inhibitory concentration [2] [mg/mL] | local irritations and/or allergies ([3]; 2% taurolidine gel or emulsion on skin of affected patient) | side effects such as flaking, stinging and itching ([3]; 2% taurolidine gel or emulsion, topical) | reduction of inflamed lesions in the skin ([3]; hydroxyethylcellulose gel (or W/O or O/W emulsion) with 2% taurolidine, several days after application) [%] | sensitization classification [4]
1 | C[C@]12C=CC(=O)C=C1CC[C@@H]1[C@@H]2[C@@H](O)C[C@@]2(C)[C@H]1CC[C@]2(O)C(=O)CO [Prednisolon] | the atopical eczema was not completely gone |  |  |  |  | 
2 | O=S1(=O)CCN(CN2CCS(=O)(=O)NC2)CN1 [taurolidine, 4,4′-methylenebis-(1,2,4-thiadiazine-1,1-dioxide)] |  | 0.3 to 0.6 | no local irritations and/or allergies could be observed | No side effects | 50 | non-sensitizing agent
3 | COCC1=C(C(=O)O)N2C(=O)[C@@H](NC(=O)/C(=N\OC)c3csc(N)n3)[C@H]2SC1 [Cefpodoxim] | improved somewhat |  |  |  |  | 
